According to patent publication US20240059671A1, “TYROSINE KINASE 2 (TYK2) DEGRADATION COMPOUNDS AND METHODS OF USE” (CULLGEN (SHANGHAI), INC., priority 2020, published 2024):

Target: TYK2 (Homo sapiens, UniProt P29597)
Assay: TYK2 protein degradation in MOLT-4 cells by immunoblotting
Type: cell-based
Parameters: endogenous in cells; host or cells: MOLT-4
Conditions: MOLT-4 cells, 24 hours
Protocol: MOLT-4 cells were treated with compounds at 0.5 and 5 μM concentrations for 24 hours.
MOLT-4 cells were treated with CPD-038, CPD-039, and CPD-040 at 0.04, 0.2, 1, and 5 μM concentrations for 24 hours.
MOLT-4 or NOMO-1 cells were cultured at 37° C. with 5% CO2 in RPMI 1640 Medium supplemented with 10% fetal bovine serum. Cells were authenticated using the short tandem repeat (STR) assays. Mycoplasma test results were negative.
Cultured cells were washed with cold PBS once and lysed in cold RIPA buffer supplemented with protease inhibitors and phosphatase inhibitors (Beyotime Biotechnology). The solutions were then incubated at 4° C. for 30 minutes with gentle agitation to fully lyse cells. Cell lysates were centrifuged at 13,000 rpm for 10 minutes at 4° C. and pellets were discarded. Total protein concentrations in the lysates were determined by BCA assays (Beyotime Biotechnology). Cell lysates were mixed with Laemmli loading buffer to 1× and heated at 99° C. for 5 min. Proteins were resolved on SDS-PAGE and visualized by chemiluminescence. Images were taken by a ChemiDoc MP Imaging system (Bio-Rad). Protein bands were quantitated using the accompanied software provided by Bio-Rad.
The percentage of TYK2 protein degradation of each compound at 0.5 and 5 μM determined in MOLT-4 cells as described in Methods.

Sequence of TYK2 (P29597 whole entry): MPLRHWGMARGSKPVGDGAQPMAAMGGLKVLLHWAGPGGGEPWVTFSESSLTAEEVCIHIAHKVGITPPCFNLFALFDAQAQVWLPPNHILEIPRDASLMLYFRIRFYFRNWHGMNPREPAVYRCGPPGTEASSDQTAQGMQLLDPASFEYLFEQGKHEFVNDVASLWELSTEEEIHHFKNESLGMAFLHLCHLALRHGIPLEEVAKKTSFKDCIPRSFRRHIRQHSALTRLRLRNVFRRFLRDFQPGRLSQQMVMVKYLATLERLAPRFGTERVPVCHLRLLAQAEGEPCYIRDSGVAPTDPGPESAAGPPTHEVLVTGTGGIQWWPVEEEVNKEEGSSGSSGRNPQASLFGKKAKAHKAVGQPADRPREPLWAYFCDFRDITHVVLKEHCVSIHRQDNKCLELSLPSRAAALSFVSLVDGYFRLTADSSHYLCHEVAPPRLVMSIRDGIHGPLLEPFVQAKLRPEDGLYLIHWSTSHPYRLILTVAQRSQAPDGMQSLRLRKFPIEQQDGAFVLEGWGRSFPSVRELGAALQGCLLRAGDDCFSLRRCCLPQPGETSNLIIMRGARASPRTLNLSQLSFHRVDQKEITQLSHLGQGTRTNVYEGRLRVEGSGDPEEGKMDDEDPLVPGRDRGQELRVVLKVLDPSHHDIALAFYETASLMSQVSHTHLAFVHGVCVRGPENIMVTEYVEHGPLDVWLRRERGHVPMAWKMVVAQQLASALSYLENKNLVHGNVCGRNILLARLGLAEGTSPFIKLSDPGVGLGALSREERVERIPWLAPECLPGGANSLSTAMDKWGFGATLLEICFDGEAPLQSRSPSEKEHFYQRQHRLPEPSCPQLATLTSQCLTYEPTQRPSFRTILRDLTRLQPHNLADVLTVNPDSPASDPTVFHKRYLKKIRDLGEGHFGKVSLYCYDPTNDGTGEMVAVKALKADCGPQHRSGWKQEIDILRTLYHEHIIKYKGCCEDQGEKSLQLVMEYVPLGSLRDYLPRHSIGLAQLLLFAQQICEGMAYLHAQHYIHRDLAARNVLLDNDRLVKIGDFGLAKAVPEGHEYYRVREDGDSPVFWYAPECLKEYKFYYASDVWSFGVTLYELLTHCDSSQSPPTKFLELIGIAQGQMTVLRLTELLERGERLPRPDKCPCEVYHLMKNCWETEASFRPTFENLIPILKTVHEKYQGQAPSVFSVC

Row | SMILES | TYK2 Degradation (MOLT-4, 0.5 μM) | TYK2 Degradation (MOLT-4, 5 μM) | TYK2 Degradation (0.5 μM) [%] | TYK2 Degradation (5 μM) [%]
1 | CNC(=O)c1nnc(NC(=O)C2CC2)cc1Nc1cccc(-c2ncn(CCNC(=O)CCOCCOCCNc3cccc4c3C(=O)N(C3CCC(=O)NC3=O)C4=O)n2)c1OC (stereo not drawn) [CPD-009, 6-(Cyclopropanecarboxamido)-4-((3-(1-(2-(3-(2-(2-((2-(2,6-dioxopiperidin-3-yl)-1,3-dioxoisoindolin-4-yl)amino)ethoxy)ethoxy)propanamido)ethyl)-1H-1,2,4-triazol-3-yl)-2-methoxyphenyl)amino)-N-methylpyridazine-3-carboxamide] |  |  | ≤20 | 
2 | CNC(=O)c1nnc(NC(=O)CNC(=O)COCCOCCOCCOCCOCC(=O)N[C@H](C(=O)N2C[C@H](O)C[C@H]2C(=O)NCc2ccc(-c3scnc3C)cc2)C(C)(C)C)cc1Nc1cccc(-c2ncn(C)n2)c1OC [CPD-032, N^1—((S)-1-((2S,4R)-4-Hydroxy-2-((4-(4-methylthiazol-5-yl)benzyl)carbamoyl)pyrrolidin-1-yl)-3,3-dimethyl-1-oxobutan-2-yl)-N^17-(2-((5-((2-methoxy-3-(1-methyl-1H-1,2,4-triazol-3-yl)phenyl)amino)-6-(methylcarbamoyl)pyridazin-3-yl)amino)-2-oxoethyl)-3,6,9,12,15-pentaoxaheptadecanediamide] |  |  | ≤20 | ≤20
3 | CNC(=O)c1nnc(NC(=O)C2CC2)cc1Nc1cccc(-c2ncn(CCNC(=O)CCOCCOCCOCCOCCOCCC(=O)N[C@H](C(=O)N3C[C@H](O)C[C@H]3C(=O)NCc3ccc(-c4scnc4C)cc3)C(C)(C)C)n2)c1OC [CPD-074, N^1-(2-(3-(3-((6-(Cyclopropanecarboxamido)-3-(methylcarbamoyl)pyridazin-4-yl)amino)-2-methoxyphenyl)-1H-1,2,4-triazol-1-yl)ethyl)-N^19-((S)-1-((2S,4R)-4-hydroxy-2-((4-(4-methylthiazol-5-yl)benzyl)carbamoyl)pyrrolidin-1-yl)-3,3-dimethyl-1-oxobutan-2-yl)-4,7,10,13,16-pentaoxanonadecanediamide] |  |  | ≤20 | ≤20
4 | CNC(=O)c1nnc(NC(=O)C2CC2)cc1Nc1cccc(-c2ncn(CCNC(=O)CCCCCCCNc3ccc4c(c3)C(=O)N(C3CCC(=O)NC3=O)C4=O)n2)c1OC (stereo not drawn) [CPD-024, 6-(Cyclopropanecarboxamido)-4-((3-(1-(2-(8-((2-(2,6-dioxopiperidin-3-yl)-1,3-dioxoisoindolin-5-yl)amino)octanamido)ethyl)-1H-1,2,4-triazol-3-yl)-2-methoxyphenyl)amino)-N-methylpyridazine-3-carboxamide] |  |  | ≤20 | 30
5 | CNC(=O)c1nnc(NC(=O)CNC(=O)CCCCNc2ccc3c(c2)C(=O)N(C2CCC(=O)NC2=O)C3=O)cc1Nc1cccc(-c2ncn(C)n2)c1OC (stereo not drawn) [CPD-057, 6-(2-(5-((2-(2,6-Dioxopiperidin-3-yl)-1,3-dioxoisoindolin-5-yl)amino)pentanamido)acetamido)-4-((2-methoxy-3-(1-methyl-1H-1,2,4-triazol-3-yl)phenyl)amino)-N-methylpyridazine-3-carboxamide] |  |  | ≤20 | ≤20
6 | CNC(=O)c1nnc(NC(=O)CNC(=O)CNc2cccc3c2C(=O)N(C2CCC(=O)NC2=O)C3=O)cc1Nc1cccc(-c2ncn(C)n2)c1OC (stereo not drawn) [CPD-042, 6-(2-(2-((2-(2,6-Dioxopiperidin-3-yl)-1,3-dioxoisoindolin-4-yl)amino)acetamido)acetamido)-4-((2-methoxy-3-(1-methyl-1H-1,2,4-triazol-3-yl)phenyl)amino)-N-methylpyridazine-3-carboxamide] |  |  | ≤20 | ≤20
7 | CNC(=O)c1nnc(NC(=O)CNC(=O)CCCCCNc2ccc3c(c2)C(=O)N(C2CCC(=O)NC2=O)C3=O)cc1Nc1cccc(-c2ncn(C)n2)c1OC (stereo not drawn) [CPD-058, 6-(2-(6-((2-(2,6-Dioxopiperidin-3-yl)-1,3-dioxoisoindolin-5-yl)amino)hexanamido)acetamido)-4-((2-methoxy-3-(1-methyl-1H-1,2,4-triazol-3-yl)phenyl)amino)-N-methylpyridazine-3-carboxamide] |  |  | ≤20 | ≤20

Continued, values first:

Row | TYK2 Degradation (MOLT-4, 0.5 μM) | TYK2 Degradation (MOLT-4, 5 μM) | TYK2 Degradation (0.5 μM) [%] | TYK2 Degradation (5 μM) [%] | SMILES
8 | C (C: ≤20% TYK2 degradation) | C (C: ≤20% TYK2 degradation) |  |  | CNC(=O)c1nnc(NC(=O)CNC(=O)CCCCCCNC(=O)C[C@H](NC(=O)[C@@H]2C[C@@H](O)CN2C(=O)[C@@H](NC(=O)C2(F)CC2)C(C)(C)C)c2ccc(-c3scnc3C)cc2)cc1Nc1cccc(-c2ncn(C)n2)c1OC [CPD-091, 6-(2-(7-((S)-3-((2S,4R)-1-((S)-2-(1-Fluorocyclopropane-1-carboxamido)-3,3-dimethylbutanoyl)-4-hydroxypyrrolidine-2-carboxamido)-3-(4-(4-methylthiazol-5-yl)phenyl)propanamido)heptanamido)acetamido)-4-((2-methoxy-3-(1-methyl-1H-1,2,4-triazol-3-yl)phenyl)amino)-N-methylpyridazine-3-carboxamide]
9 |  |  | ≤20 | ≤20 | CNC(=O)c1nnc(NC(=O)C2CC2)cc1Nc1cccc(-c2ncn(CCNC(=O)CCCCC(=O)N[C@H](C(=O)N3C[C@H](O)C[C@H]3C(=O)NCc3ccc(-c4scnc4C)cc3)C(C)(C)C)n2)c1OC [CPD-077, N^1-(2-(3-(3-((6-(Cyclopropanecarboxamido)-3-(methylcarbamoyl)pyridazin-4-yl)amino)-2-methoxyphenyl)-1H-1,2,4-triazol-1-yl)ethyl)-N^6-((S)-1-((2S,4R)-4-hydroxy-2-((4-(4-methylthiazol-5-yl)benzyl)carbamoyl)pyrrolidin-1-yl)-3,3-dimethyl-1-oxobutan-2-yl)adipamide]
10 | C (C: ≤20% TYK2 degradation) | C (C: ≤20% TYK2 degradation) |  |  | CNC(=O)c1nnc(NC(=O)C2CC2)cc1Nc1cccc(-c2ncn(CCNC(=O)CCCCCCCCCC(=O)N[C@H](C(=O)N3C[C@H](O)C[C@H]3C(=O)NCc3ccc(-c4scnc4C)cc3)C(C)(C)C)n2)c1OC [CPD-082, N^1-(2-(3-(3-((6-(Cyclopropanecarboxamido)-3-(methylcarbamoyl)pyridazin-4-yl)amino)-2-methoxyphenyl)-1H-1,2,4-triazol-1-yl)ethyl)-N^11-((S)-1-((2S,4R)-4-hydroxy-2-((4-(4-methylthiazol-5-yl)benzyl)carbamoyl)pyrrolidin-1-yl)-3,3-dimethyl-1-oxobutan-2-yl)undecanediamide]
11 |  |  | ≤20 | ≤20 | CNC(=O)c1nnc(NC(=O)CNC(=O)COCCOCC(=O)N[C@H](C(=O)N2C[C@H](O)C[C@H]2C(=O)NCc2ccc(-c3scnc3C)cc2)C(C)(C)C)cc1Nc1cccc(-c2ncn(C)n2)c1OC [CPD-027, 6-((S)-13-((2S,4R)-4-Hydroxy-2-((4-(4-methylthiazol-5-yl)benzyl)carbamoyl)pyrrolidine-1-carbonyl)-14,14-dimethyl-4,11-dioxo-6,9-dioxa-3,12-diazapentadecanamido)-4-((2-methoxy-3-(1-methyl-1H-1,2,4-triazol-3-yl)phenyl)amino)-N-methylpyridazine-3-carboxamide]
12 |  |  | ≤20 | ≤20 | CNC(=O)c1nnc(NC(=O)C2CC2)cc1Nc1cccc(-c2ncn(CCNC(=O)COCC(=O)N[C@H](C(=O)N3C[C@H](O)C[C@H]3C(=O)NCc3ccc(-c4scnc4C)cc3)C(C)(C)C)n2)c1OC [CPD-066, 6-(Cyclopropanecarboxamido)-4-((3-(1-(2-(2-(2-(((S)-1-((2S,4R)-4-hydroxy-2-((4-(4-methylthiazol-5-yl)benzyl)carbamoyl)pyrrolidin-1-yl)-3,3-dimethyl-1-oxobutan-2-yl)amino)-2-oxoethoxy)acetamido)ethyl)-1H-1,2,4-triazol-3-yl)-2-methoxyphenyl)amino)-N-methylpyridazine-3-carboxamide]
13 | C (C: ≤20% TYK2 degradation) | C (C: ≤20% TYK2 degradation) |  |  | CNC(=O)c1nnc(NC(=O)CNC(=O)CCCCCCCOc2cc(-c3scnc3C)ccc2CNC(=O)[C@@H]2C[C@@H](O)CN2C(=O)[C@@H](NC(=O)C2(F)CC2)C(C)(C)C)cc1Nc1cccc(-c2ncn(C)n2)c1OC [CPD-107, 6-(2-(8-(2-(((2S,4R)-1-((S)-2-(1-Fluorocyclopropane-1-carboxamido)-3,3-dimethylbutanoyl)-4-hydroxypyrrolidine-2-carboxamido)methyl)-5-(4-methylthiazol-5-yl)phenoxy)octanamido)acetamido)-4-((2-methoxy-3-(1-methyl-1H-1,2,4-triazol-3-yl)phenyl)amino)-N-methylpyridazine-3-carboxamide]
14 | C (C: ≤20% TYK2 degradation) | C (C: ≤20% TYK2 degradation) |  |  | CNC(=O)c1nnc(NC(=O)CNC(=O)CCCCCNC(=O)C[C@H](NC(=O)[C@@H]2C[C@@H](O)CN2C(=O)[C@@H](NC(=O)C2(F)CC2)C(C)(C)C)c2ccc(-c3scnc3C)cc2)cc1Nc1cccc(-c2ncn(C)n2)c1OC [CPD-090, 6-(2-(6-((S)-3-((2S,4R)-1-((S)-2-(1-Fluorocyclopropane-1-carboxamido)-3,3-dimethylbutanoyl)-4-hydroxypyrrolidine-2-carboxamido)-3-(4-(4-methylthiazol-5-yl)phenyl)propanamido)hexanamido)acetamido)-4-((2-methoxy-3-(1-methyl-1H-1,2,4-triazol-3-yl)phenyl)amino)-N-methylpyridazine-3-carboxamide]
